Measurements reported in the NIST ThermoML archive (doi:10.1016/j.fluid.2004.10.022).
± gives the expanded uncertainty stated by the source.

Experiments:
[1] = refractive index (Na D-line) (dimensionless); conditions: 298.15 K; 101.33 kPa; Liquid; Standard Abbe refractometry
[2] = Liquid; for mass density: 101.33 kPa

CC(C)(C)O [2-methylpropan-2-ol]
Conditions	refractive index
[1]	1.3851 ± 0.0007

[2]
Conditions	mass density [kg/m3]	vapor or sublimation pressure [kPa]
300.93 K	–	6.93 ± 0.13
303.15 K	775.4 ± 0.65	–
304.86 K	–	8.76 ± 0.14
309.12 K	–	11.16 ± 0.15
313.25 K	–	14.03 ± 0.17
315.48 K	–	15.81 ± 0.2
320.17 K	–	20 ± 0.24
320.75 K	–	20.63 ± 0.24
325.05 K	–	25.76 ± 0.27
328.35 K	–	30.37 ± 0.32
331.45 K	–	35.33 ± 0.36
334.15 K	–	40.21 ± 0.4
336.65 K	–	45.17 ± 0.43
338.85 K	–	49.98 ± 0.47
341.05 K	–	55.12 ± 0.5
342.95 K	–	59.92 ± 0.54
344.85 K	–	65.12 ± 0.57
346.45 K	–	69.66 ± 0.61
348.15 K	–	74.84 ± 0.64
349.75 K	–	79.98 ± 0.68
351.25 K	–	85.09 ± 0.71
352.65 K	–	90.08 ± 0.75
353.95 K	–	94.97 ± 0.78
355.15 K	–	99.63 ± 0.67
355.59 K	–	100 ± 0.8
355.65 K	–	101.33 ± 0.81
356.55 K	–	105.13 ± 0.87
357.65 K	–	109.82 ± 0.88
358.85 K	–	115.07 ± 0.94
359.83 K	–	119.91 ± 1

CC(=O)OC(C)(C)C [1,1-dimethylethyl ethanoate]
Conditions	refractive index
[1]	1.384 ± 0.0007

[2]
Conditions	mass density [kg/m3]	vapor or sublimation pressure [kPa]
298.15 K	860.53 ± 0.62	–
307.53 K	–	8.99 ± 0.13
311.79 K	–	10.99 ± 0.13
315.64 K	–	13.09 ± 0.15
319.82 K	–	15.73 ± 0.17
324.28 K	–	19.04 ± 0.18
325.46 K	–	20 ± 0.2
328.94 K	–	23.09 ± 0.21
332.36 K	–	26.48 ± 0.23
336.12 K	–	30.67 ± 0.26
339.58 K	–	35.02 ± 0.29
342.46 K	–	39.04 ± 0.31
345.75 K	–	43.98 ± 0.34
348.84 K	–	49.09 ± 0.37
352.07 K	–	54.94 ± 0.38
354.95 K	–	60.02 ± 0.43
357.17 K	–	65.33 ± 0.48
359.63 K	–	70.88 ± 0.49
361.83 K	–	76.15 ± 0.51
363.85 K	–	81.26 ± 0.54
366 K	–	87.01 ± 0.57
367.99 K	–	92.58 ± 0.59
369.46 K	–	96.91 ± 0.62
370.68 K	–	100.64 ± 0.73
370.86 K	–	100 ± 0.73
372.26 K	–	105.59 ± 0.82

CC(=O)OCC(C)C [2-methylpropyl ethanoate]
Conditions	refractive index
[1]	1.3876 ± 0.0007

[2]
Conditions	mass density [kg/m3]	vapor or sublimation pressure [kPa]
293.15 K	866.12 ± 0.62	–
307.43 K	–	3.99 ± 0.1
315.56 K	–	5.99 ± 0.1
322.93 K	–	8.48 ± 0.12
328.64 K	–	10.98 ± 0.14
335.75 K	–	14.98 ± 0.15
341.55 K	–	18.96 ± 0.18
342.95 K	–	20 ± 0.2
346.88 K	–	23.44 ± 0.21
351.45 K	–	27.95 ± 0.24
355.75 K	–	32.86 ± 0.27
359.66 K	–	37.89 ± 0.29
363.22 K	–	42.93 ± 0.32
366.39 K	–	47.84 ± 0.35
368.76 K	–	51.85 ± 0.38
371.61 K	–	57.06 ± 0.4
374.55 K	–	62.82 ± 0.43
376.93 K	–	67.79 ± 0.46
379.15 K	–	72.78 ± 0.48
381.03 K	–	77.2 ± 0.52
383.63 K	–	83.72 ± 0.55
385.84 K	–	89.68 ± 0.57
387.69 K	–	94.78 ± 0.59
389.16 K	–	98.95 ± 0.52
389.9 K	–	100 ± 0.64
391.39 K	–	105.57 ± 0.77

CC(C)CO [2-methyl-1-propanol]
Conditions	refractive index
[1]	1.3937 ± 0.0008

[2]
Conditions	mass density [kg/m3]	vapor or sublimation pressure [kPa]
298.15 K	797.83 ± 0.62	–
342.52 K	–	20 ± 0.43
381.09 K	–	100 ± 0.45
